Laboratory results as given in PubChem BioAssay AID1259411 (Chemical Carcinogenesis Research Information System (CCRIS), 2018).
Activity calls are given as the source filed them. No rule for the calls is given here.

Tested on: rodent carcinogenicity bioassays, tumor incidence
Experiment: CCRIS carcinogenicity studies
Outline: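 NCI-built, expert-reviewed records of carcinogenicity and related test outcomes (mutagenicity, tumor promotion/inhibition) compiled from published and report sources, historical span 1985-2011, not updated.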

Question: Which results are given for Cc1c2ccccc2c(CO)c2ccc3ccccc3c12?
Answer: carcinogen call (Species: MOUSE, Strain/Sex: B6C3F1/MALE, Route: INTRAPERITONEAL, Dose: 0, 0.0025, 0.01, 0.03 UMOL/G IN 10 µL/G TRIOCTANOIN D 12 OF AGE (STUDY DURATION: 10 MO), Dose: 0, 0.0025, 0.01, 0.03 UMOL/G IN 10 µL/G TRIOCTANOIN D 12 OF AGE (STUDY DURATION: 10 MO), Tumor Site: Type of Lesion: LIVER: HEPATOMA): active; positive; carcinogen call (Species: MOUSE, Strain/Sex: B6C3F1/MALE, Route: INTRAPERITONEAL, Dose: 0, 0.0025 UMOL/G IN 10 µL TRIOCTANOIN ON D 12, 16, 20 AND 24 OF AGE (STUDY DURATION: 12 MO), Tumor Site: Type of Lesion: LIVER: HEPATOMA): active; positive; carcinogen call (Species: MOUSE, Strain/Sex: B6C3F1/MALE, Route: INTRAPERITONEAL, Dose: 0, 0.0075, 0.015, 0.03 UMOL/G IN 10 µL/G TRIOCTANOIN ONCE ON D 12 OF AGE (STUDY DURATION: 10 MO), Dose: 0, 0.0075, 0.015, 0.03 UMOL/G IN 10 µL/G TRIOCTANOIN ONCE ON D 12 OF AGE (STUDY DURATION: 10 MO), Tumor Site: Type of Lesion: LIVER: HEPATOMA): active; positive; carcinogen call (Species: MOUSE, Strain/Sex: B6C3F1/MALE, Route: INTRAPERITONEAL, Dose: 0, 0.01, 0.03, 0.06, UMOL/G IN 5 µL/G DMSO ONCE ON D 12 AGE (STUDY DURATION: 10 MO), Dose: 0, 0.01, 0.03, 0.06, UMOL/G IN 5 µL/G DMSO ONCE ON D 12 AGE (STUDY DURATION: 10 MO), Tumor Site: Type of Lesion: LIVER: HEPATOMA): active; positive; carcinogen call (Species: MOUSE, Strain/Sex: B6C3F1/MALE, Route: INTRAPERITONEAL, Dose: 0, 0.03, 0.08, 0.25 UMOL/G IN 10 µL/G TRIOCTANOIN ONCE AT 12 D OF AGE (STUDY DURATION: 8.5 MO), Dose: 0, 0.03, 0.08, 0.25 UMOL/G IN 10 µL/G TRIOCTANOIN ONCE AT 12 D OF AGE (STUDY DURATION: 8.5 MO), Tumor Site: Type of Lesion: LIVER: HEPATOMA): active; positive; carcinogen call (Species: MOUSE, Strain/Sex: STRAIN-A/FEMALE, Route: INTRAPERITONEAL, Dose: 0, 0.01, 0.03, 0.06 UMOL/G IN 5 µL DMSO/G ONCE AT 4-6 WK OF AGE (STUDY DURATION: 6 MO), Dose: 0, 0.01, 0.03, 0.06 UMOL/G IN 5 µL DMSO/G ONCE AT 4-6 WK OF AGE (STUDY DURATION: 6 MO), Tumor Site: Type of Lesion: LUNG: ADENOMA): active; positive; carcinogen call (Species: RAT, Strain/Sex: SPRAGUE-DAWLEY/FEMALE, Route: SUBCUTANEOUS, Dose: 0, 0.2 UMOL 3/WK FOR 20 DOSES (STUDY DURATION: 52 WK), Tumor Site: Type of Lesion: INJECTION SITE: SARCOMA): active; positive; carcinogen call (Species: RAT, Strain/Sex: SPRAGUE-DAWLEY/FEMALE, Route: SUBCUTANEOUS, Dose: 0, 2 UMOL IN 0.25 ML TRIOCTANOIN INTO LEFT HIND LEG AT ABOUT 40 D OF AGE FOLLOWED BY A SECOND DOSE 6 D LATER (STUDY DURA): inactive; negative; carcinogen call (Species: RAT, Strain/Sex: SPRAGUE-DAWLEY/FEMALE, Route: SUBCUTANEOUS, Dose: 0, 2 UMOL IN 0.25 ML TRIOCTANOIN ONCE INTO LEFT HIND LEG AT ABOUT 40 D OF AGE (STUDY DURATION: 16 MO)): inactive; negative

Question: For C[C@H]1O[C@@H]1Cl, which carcinogen call (Species: MOUSE, Strain/Sex: ICR/FEMALE, Route: DERMAL, Dose: 10 MG IN 0.1 ML ACETONE 3/WK FOR LIFE, Tumor Site: Type of Lesion: INTEGUMENTARY SYSTEM (SKIN): PAPILLOMA, SQUAMOUS CELL CARCINOMA) is on record?
Answer: Its carcinogen call is “active; positive”.

Question: What about the carcinogen call (Species: MOUSE, Strain/Sex: ICR/FEMALE, Route: SUBCUTANEOUS, Dose: 1 MG IN 0.05 ML TRICAPRYLIN 1/WK FOR LIFE, Tumor Site: Type of Lesion: INJECTION SITE: FIBROSARCOMA, CARCINOMA) of the same compound?
Answer: Its carcinogen call is “active; positive”.

Question: Which results are given for N#[N+]c1ccc(O)cc1?
Answer: carcinogen call (Species: MOUSE, Strain/Sex: SWISS/FEMALE, Route: SUBCUTANEOUS, Dose: 0, 2 UG 1/WK FOR 36 WK (STUDY DURATION: 120 WK), Tumor Site: Type of Lesion: SUBCUTANEOUS TISSUE: TUMOR): active; positive; carcinogen call (Species: MOUSE, Strain/Sex: SWISS/FEMALE, Route: SUBCUTANEOUS, Dose: 0, 10 UG 1/WK FOR 2 WK (STUDY DURATION: 130 WK)): inactive; negative; carcinogen call (Species: MOUSE, Strain/Sex: SWISS/MALE, Route: SUBCUTANEOUS, Dose: 0, 2 UG 1/WK FOR 36 WK (STUDY DURATION: 110 WK), Tumor Site: Type of Lesion: SUBCUTANEOUS TISSUE: TUMOR): active; positive; carcinogen call (Species: MOUSE, Strain/Sex: SWISS/MALE, Route: SUBCUTANEOUS, Dose: 0, 10 UG 1/WK FOR 2 WK (STUDY DURATION: 130 WK)): inactive; negative

Question: Which results are given for C1CC[CH]([Sn]([CH]2CCCCC2)[CH]2CCCCC2)CC1?
Answer: carcinogen call (Species: Mouse, Strain/Sex: B6C3F1/Female (50/group), Route: Oral, Dose: 0, 1, 3, 6 mg/kg of 98% pure cyhexatin in diet for 2 years, Dose: 0, 1, 3, 6 mg/kg of 98% pure cyhexatin in diet for 2 years): inactive; negative, (dpr evaluator indicated inadequate justification of dose and too narr; carcinogen call (Species: Mouse, Strain/Sex: B6C3F1/Male (50/group), Route: Oral, Dose: 0, 1, 3, 6 mg/kg of 98% pure cyhexatin in diet for 2 years, Dose: 0, 1, 3, 6 mg/kg of 98% pure cyhexatin in diet for 2 years): inactive; negative, (dpr evaluator indicated inadequate justification of dose and too narr

Question: How did the carcinogen call (Species: MOUSE, Strain/Sex: B6C3F1/MALE, Route: INTRAPERITONEAL, Dose: 0, 4.75 UMOL TOTAL DOSE, D 1,8,15 AND 22 AFTER BIRTH, AUTOPSIED AT 13-18 MO, Dose: 0, 4.75 UMOL TOTAL DOSE, D 1,8,15 AND 22 AFTER BIRTH, AUTOPSIED AT 13-18 MO, Tumor Site: Type of Lesion: LIVER: HEPATOMA) turn out when C=CCc1ccc(OC)cc1 was run?
Answer: Its carcinogen call is “active; positive”.

Question: And the carcinogen call (Species: MOUSE, Strain/Sex: C3H/MALE, Route: INTRAPERITONEAL, Dose: 0, 9.45 UMOL TOTAL DOSE, D 1,8,15 AND 22 AFTER BIRTH, AUTOPSIED AT 12 MO, Dose: 0, 9.45 UMOL TOTAL DOSE, D 1,8,15 AND 22 AFTER BIRTH, AUTOPSIED AT 12 MO, Tumor Site: Type of Lesion: LIVER: HEPATOMA)?
Answer: Its carcinogen call is “active; positive”.

Question: And the carcinogen call (Species: MOUSE, Strain/Sex: CD-1/FEMALE, Route: ORAL, Dose: 0, 0.23, 0.46% IN DIET, FOR 12 MO, Dose: 0, 0.23, 0.46% IN DIET, FOR 12 MO, Tumor Site: Type of Lesion: LIVER: HEPATOMA)?
Answer: The carcinogen call was “active; positive”.

Question: And the carcinogen call (Species: MOUSE, Strain/Sex: CD-1/MALE,FEMALE, Route: GAVAGE, Dose: 0, 25 UMOL/G TOTAL DOSE, 2/WK FOR 5 WK BEGINNING ON D 4 AFTER BIRTH, AUTOPSIED AT 11-14 MO, Dose: 0, 25 UMOL/G TOTAL DOSE, 2/WK FOR 5 WK BEGINNING ON D 4 AFTER BIRTH, AUTOPSIED AT 11-14 MO, Tumor Site: Type of Lesion: LIVER: HEPATOMA)?
Answer: Its carcinogen call is “active; positive”.

Question: And the carcinogen call (Species: MOUSE, Strain/Sex: CD-1/MALE, Route: SUBCUTANEOUS, Dose: 0, 0.17, 0.35 UMOL IN 0.025 ML TRIOCTANOIN WITHIN 24 HR AFTER BIRTH THEN 0, 0.47, 0.69 UMOL IN 0.05 ML TRIOCTANOIN ON D, Dose: 0, 0.17, 0.35 UMOL IN 0.025 ML TRIOCTANOIN WITHIN 24 HR AFTER BIRTH THEN 0, 0.47, 0.69 UMOL IN 0.05 ML TRIOCTANOIN ON D, Tumor Site: Type of Lesion: LIVER: HEPATOCELLULAR CARCINOMA)?
Answer: The carcinogen call was “active; positive”.

Question: And the carcinogen call (Species: MOUSE, Strain/Sex: CD-1/MALE, Route: SUBCUTANEOUS, Dose: 0, 4.43, 5.19 UMOL TOTAL DOSE, D 1,8,15 AND 22 AFTER BIRTH, Dose: 0, 4.43, 5.19 UMOL TOTAL DOSE, D 1,8,15 AND 22 AFTER BIRTH, Tumor Site: Type of Lesion: LIVER: HEPATOCELLULAR CARCINOMA)?
Answer: Its carcinogen call is “active; positive”.

Question: And the carcinogen call (Species: Mouse, Strain/Sex: ICR/Female (30 324 day survivors/Group), Route: Intraperitoneal injection, Dose: 150 mg/kg bw a wk for 17 wks, study duration 537 days, Tumor Site: Type of Lesion: Liver: Hepatocellular adenoma and carcinoma)?
Answer: Its carcinogen call is “active; positive (80% incidence). apparent lack of concurrent controls”.

Question: With CCc1cc2ccccc2c2ccc3c(c12)[C@@H]1O[C@@H]1[C@H](O)[C@H]3O as the compound, how does the carcinogen call (Species: MOUSE, Strain/Sex: ICR/FEMALE, Route: INTRAPERITONEAL, Dose: 0, 8 NMOL IN 5 µL DMSO ON D 1, 16 NMOL IN 10 µL ON D 8 AND 32 NMOL IN 20 µL ON D 15 OF LIFE (STUDY DURATION: 35 WK)) read?
Answer: The carcinogen call was “inactive; negative”.

Question: And the carcinogen call (Species: MOUSE, Strain/Sex: ICR/MALE, Route: INTRAPERITONEAL, Dose: 0, 8 NMOL IN 5 µL DMSO ON D 1, 16 NMOL IN 10 µL ON D 8 AND 32 NMOL IN 20 µL ON D 15 OF LIFE (STUDY DURATION: 35 WK))?
Answer: The carcinogen call was “inactive; negative”.

Question: How did the carcinogen call (Species: MOUSE, Route: INTRAPERITONEAL, Tumor Site: Type of Lesion: LUNG) turn out when CC(C)CBr was run?
Answer: Its carcinogen call is “active; positive”.

Question: With COC(=O)C1=CCCN(C)C1 as the compound, how does the carcinogen call (Species: MOUSE, Strain/Sex: SWISS/FEMALE, Route: GAVAGE, Dose: 0, 1 MG/D 5 D/WK FOR LIFE (STUDY DURATION: LIFE)) read?
Answer: Its carcinogen call is “inactive; negative”.

Question: What about the carcinogen call (Species: MOUSE, Strain/Sex: SWISS/MALE, Route: GAVAGE, Dose: 0, 1 MG/D 5 D/WK FOR LIFE (STUDY DURATION: LIFE), Tumor Site: Type of Lesion: LIVER: HEMANGIOMA, LUNG: ADENOCARCINOMA, STOMACH: SQUAMOUS CELL CARCINOMA, Tumor Site: Type of Lesion: LIVER: HEMANGIOMA, LUNG: ADENOCARCINOMA, STOMACH: SQUAMOUS CELL CARCINOMA) of the same compound?
Answer: Its carcinogen call is “active; positive”.
